Data reported in PMC8156467, “Disruption of YY1-EZH2 Interaction Using Synthetic Peptides Inhibits Breast Cancer Development” (Cancers, 2021).

Tests used:
[1] = test system: breast cancer cells (MCF-7, MDA-MB-231, MDA-MB-453); assay: Annexin V-FITC/PI apoptosis, breast cancer cells together; type: cell-based; conditions: peptides 30 μM (no FITC), tamoxifen 15 µM, 48 h; vs Cont
Method: The cells were collected by trypsinization and washed twice by ice-cold PBS, followed by Annexin V-FITC and propidium iodide (PI) staining for 10 min using the reagents in an Annexin V-FITC Apoptosis Detection Kit (Vazyme Biotech Co. Ltd., Nanjing, China). The ratios of apoptotic cells were evaluated using flow cytometry (AccuriC6, BD Biosciences, San Jose, CA, USA).

HA-YY1 = assay: Co-IP of Flag-EZH2 wt/mutants with HA-YY1; type: binding; conditions: co-IP, Flag-tagged EZH2 and HA-YY1
Text: (§1) HA-tagged expression vectors of wild-type (wt) and mutant YY1 were constructed by amplifying and subcloning the corresponding fragments of the YY1 coding region into the pcDNA3 vector. To generate EZH2 mutants, different regions of its coding sequence (1–251, 252–384, 385–618, 619–751, 385–465, 465–545, 545–618, 465–492, and 465–519) were amplified and subcloned into pGEX-4T-1 and pSL4-3×Flag plasmids to construct vectors expressing recombinant GST-EZH2 and 3×Flag-EZH2 mutants, respectively. To generate vectors expressing 3×Flag-YPB, -OPB, and -Cont (with a scrambled sequence of […]) peptides, their coding sequences were individually subcloned into a lentiviral vector pSL4 using the CMV promoter to drive the expression of 3×Flag-YPB-2A1-EGFP, 3×Flag-OPB-2A1-EGFP, and 3×Flag-Cont-2A1-EGFP. […] Two shRNAs against PTENP1 (shPTENP1-1 and shPTENP1-2, with target sequences of […] and […], respectively), and one control shRNA (with a scrambled target sequence of […]) driven by the U6 promoter were generated in a lentiviral vector with a puromycin selection marker as we previously described. In addition, we also generated lentiviruses expressing two shRNAs (shYY1-1 and shYY1-2, with target sequences of […] and […], respectively), and two EZH2 (shEZH2-1 and shEZH2-2, with target sequences of […] and […]-[…], respectively).
Immunoprecipitations were performed as described previously. Cells were harvested and lysed in cell lysis buffer (50 mM Tris⋅HCl, pH 7.5, 150 mM NaCl, 1% Nonidet P-40, 0.5% sodium deoxycholate, and 1% protease inhibitor cocktails, Sigma-Aldrich). […] In Western blot studies, protein concentrations of samples were determined using the Bradford protein method, and 20 μg of proteins for each sample were separated by SDS-PAGE followed by transfer to polyvinylidene difluoride (PVDF) membranes. […]
Figure 1 Identification of YY1 binding site on EZH2 protein. […] The samples were analyzed by Western blot using EZH2 and YY1 antibodies as indicated. […]

His×6-YY1 = His×6-YY1 (Homo sapiens, UniProt P25490); assay: GST pull-down of His×6-YY1 by GST-EZH2 mutants; type: binding; conditions: 1.0 µg His×6-YY1, 4 h
Chain of His×6-YY1 (P25490 whole entry): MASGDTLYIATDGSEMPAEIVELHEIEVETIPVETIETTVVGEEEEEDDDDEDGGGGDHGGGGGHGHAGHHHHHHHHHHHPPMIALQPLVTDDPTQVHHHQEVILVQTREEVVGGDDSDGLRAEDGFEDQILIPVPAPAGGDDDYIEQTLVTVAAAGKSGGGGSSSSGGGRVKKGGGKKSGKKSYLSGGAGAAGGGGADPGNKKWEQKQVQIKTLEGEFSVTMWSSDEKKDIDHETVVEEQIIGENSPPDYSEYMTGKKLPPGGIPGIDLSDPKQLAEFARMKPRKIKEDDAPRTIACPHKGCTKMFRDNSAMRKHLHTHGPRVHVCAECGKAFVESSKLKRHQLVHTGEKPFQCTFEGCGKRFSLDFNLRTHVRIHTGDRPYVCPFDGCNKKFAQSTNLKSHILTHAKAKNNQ
Text: as §1
The GST fusion protein expressed in E. coli was lysed with the binding buffer (20 mM Tris⋅HCl, pH 7.5, 150 mM NaCl, 0.1% Nonidet P-40, 1 mM dithiothreitol, 10% glycerol, 1 mM EDTA, 2.5 mM MgCl2, and 1 µg/mL leupeptin) for 30 min at 4 °C. Glutathione-Sepharose beads (Thermo Fisher Scientific) were incubated with bacterial lysates containing expressed recombinant GST-EZH2 mutant proteins for 4 h at 4 °C. After extensive washing of the beads, 1.0 µg of purified His×6-YY1 was added, and the samples were incubated for another 4 h. The washed beads with bound proteins were resuspended in an SDS-containing sample buffer and analyzed by SDS-PAGE.

Compound	interaction with HA-YY1 in co-IP (HA-YY1)	interaction with His×6-YY1 in GST pull-down (His×6-YY1)	further results
CC/C(=C(\c1ccccc1)c1ccc(OCCN(C)C)cc1)c1ccccc1 [tamoxifen]	–	–	pro-apoptotic portions of breast cancer cells [1]: could significantly increase the pro-apoptotic portions
(385–618): Flag-tagged EZH2 region 385–618	could bring down HA-YY1	–	–
EZH2 (465–545): Flag-tagged EZH2 mutant 465–545	could interact with HA-YY1	–	–
Flag-EZH2 wt: Flag-tagged wild-type EZH2	could bring down HA-YY1	–	–
GST-EZH2 (385–618): GST fusion of EZH2 residues 385–618	–	could interact with His×6-YY1	–
GST-EZH2 (465–519): GST fusion of EZH2 residues 465–519	–	could interact with His×6-YY1	–
GST-EZH2 (465–545): GST fusion of EZH2 residues 465–545	–	could also pull down His×6-YY1	–
